Source: patent publication US9315490B2, “2,5-substituted pyrimidines” (Grünenthal GmbH, priority 2014, dated 2016)

Target: T1, human PDE4B1 (Homo sapiens, UniProt Q07343)
T1 construct: host or cells: Sf9 cells
Experiment: TR-FRET assay using the LANCE Ultra cAMP kit to determine the activity of hPDE4B1
Format: biochemical
Conditions: for inhibition at 10 µM: test concentration 10 μM (marked in cell); for inhibition at 10 µM / inhibition at 1 µM: read-out: Inhibition in % (inhibition of PDE4B); for inhibition at 1 µM / Inhibition in % (inhibition of PDE4B): test concentration 1 μM; for Inhibition in % (inhibition of PDE4B): 1 µM
Method in brief: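 Sf9-expressed recombinant human PDE4B1 (0.96 U) hydrolyses 500 nM cAMP for 30 minutes at room temperature in 50 mM Tris-HCl, 50 mM MgCl2, 5 mM DTT, pH 8.5. The reaction is stopped with IBMX, and residual cAMP is measured by TR-FRET (665/620 ratio). IC50 comes from ten concentrations.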

T1 sequence (Q07343 whole entry): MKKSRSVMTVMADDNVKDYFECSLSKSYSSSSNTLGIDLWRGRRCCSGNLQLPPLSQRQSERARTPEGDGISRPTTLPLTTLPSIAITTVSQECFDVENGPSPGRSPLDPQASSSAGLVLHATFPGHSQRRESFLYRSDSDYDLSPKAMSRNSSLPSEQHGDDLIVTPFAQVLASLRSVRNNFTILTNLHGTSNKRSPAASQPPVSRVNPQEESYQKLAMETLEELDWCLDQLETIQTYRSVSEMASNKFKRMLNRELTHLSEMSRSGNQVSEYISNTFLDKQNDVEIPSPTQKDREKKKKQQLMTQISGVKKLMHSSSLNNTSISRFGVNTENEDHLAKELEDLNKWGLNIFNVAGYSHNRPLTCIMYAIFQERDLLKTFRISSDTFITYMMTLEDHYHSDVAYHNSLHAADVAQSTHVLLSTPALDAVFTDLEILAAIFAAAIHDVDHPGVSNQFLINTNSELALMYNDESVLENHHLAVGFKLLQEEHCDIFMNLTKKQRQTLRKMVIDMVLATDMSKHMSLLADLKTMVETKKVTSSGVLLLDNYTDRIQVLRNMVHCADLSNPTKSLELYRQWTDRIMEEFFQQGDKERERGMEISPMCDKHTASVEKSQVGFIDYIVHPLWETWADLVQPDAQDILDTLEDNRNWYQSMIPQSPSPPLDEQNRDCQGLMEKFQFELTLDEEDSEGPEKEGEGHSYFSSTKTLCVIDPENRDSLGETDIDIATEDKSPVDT

| inhibition at 10 µM | inhibition at 1 µM | SMILES | other results |
| --- | --- | --- | --- |
| 89% |  | Cc1ccc(F)c(-c2cnc(-n3cc(S(C)(=O)=O)c4ccc(C(=O)N(C)CC(N)=O)cc43)nc2)c1 [Example 328, N-(2-Amino-2-oxoethyl)-1-(5-(2-fluoro-5-methylphenyl)pyrimidin-2-yl)-N-methyl-3-(methylsulfonyl)-1H-indole-6-carboxamide] |  |
|  | 95% | CCc1ccnc(-c2cnc(-n3cc([S+](C)[O-])c4ccc(C(=O)N5CCOCC5)cc43)nc2)c1 (stereo not shown) [Example 259] |  |
| 101% |  | CN(CC(N)=O)C(=O)c1ccc2c([S+](C)[O-])cn(-c3ncc(-c4cc(N)ccn4)cn3)c2c1 (stereo not shown) [Example 286, N-(2-Amino-2-oxoethyl)-1-(5-(4-aminopyridin-2-yl)pyrimidin-2-yl)-N-methyl-3-(methylsulfinyl)-1H-indole-6-carboxamide] |  |
| 109% |  | CCc1ccc(F)c(-c2cnc(-n3cc(C(C)O)c4ccc(C(=O)N(C)CC(N)=O)cc43)nc2)c1 (stereo not shown) [Example 331, N-(2-Amino-2-oxoethyl)-1-(5-(5-ethyl-2-fluorophenyl)pyrimidin-2-yl)-3-(1-hydroxyethyl)-N-methyl-1H-indole-6-carboxamide] |  |
| 91% |  | COc1ccc(F)c(-c2cnc(-n3cc(S(C)(=O)=O)c4ccc(C(=O)N(C)CC(N)=O)cc43)nc2)c1 [Example 310, N-(2-Amino-2-oxoethyl)-1-(5-(2-fluoro-5-methoxyphenyl)pyrimidin-2-yl)-N-methyl-3-(methylsulfonyl)-1H-indole-6-carboxamide] |  |
|  | 93% | C[S+]([O-])c1cn(-c2ncc(-c3cc(C(C)(C)O)ccn3)cn2)c2cc(C(=O)N3CCOCC3)ccc12 (stereo not shown) [Example 289, (1-(5-(4-(2-Hydroxypropan-2-yl)pyridin-2-yl)pyrimidin-2-yl)-3-(methylsulfinyl)-1H-indol-6-yl)(morpholino)methanone] |  |
| 100% |  | CCOc1ccnc(-c2cnc(-n3cc([S+](C)[O-])c4ccc(C(=O)N5CCCC5)cc43)nc2)c1 (stereo not shown) [Example 343, (1-(5-(4-Ethoxypyridin-2-yl)pyrimidin-2-yl)-3-(methylsulfinyl)-1H-indol-6-yl)(pyrrolidin-1-yl)methanone] |  |
| 82% |  | Cc1ccnc(-c2cnc(-n3cc(C(C)O)c4ccc(C(=O)N(C)CC(N)=O)cc43)nc2)c1 (stereo not shown) [Example 332, N-(2-Amino-2-oxoethyl)-3-(1-hydroxyethyl)-N-methyl-1-(5-(4-methylpyridin-2-yl)pyrimidin-2-yl)-1H-indole-6-carboxamide] |  |
|  | 90% | Cc1cccc(-c2cnc(-n3cc([S+](C)[O-])c4ccc(C(=O)N5C[C@@H]6C[C@H]5CN6)cc43)nc2)n1 (stereo partly drawn) [Example 247, (1S,4S)-2,5-Diazabicyclo[2.2.1]heptan-2-yl(1-(5-(6-methylpyridin-2-yl)pyrimidin-2-yl)-3-(methylsulfinyl)-1H-indol-6-yl)methanone] |  |
|  | 82% | CN(CCCO)C(=O)c1ccc2c([S+](C)[O-])cn(-c3ncc(-c4ccccc4F)cn3)c2c1 (stereo not shown) [Example 307, 1-(5-(2-Fluorophenyl)pyrimidin-2-yl)-N-(3-hydroxypropyl)-N-methyl-3-(methylsulfinyl)-1H-indole-6-carboxamide] |  |
|  | 55% | CCOc1ccc(F)c(-c2cnc(-n3cc([S+](C)[O-])c4ccc(C(=O)N5CCOCC5)cc43)nc2)c1 (stereo not shown) [Example 261, (1-(5-(5-Ethoxy-2-fluorophenyl)pyrimidin-2-yl)-3-(methylsulfinyl)-1H-indol-6-yl)(morpholino)methanone] |  |
| 91% |  | CCc1ccnc(-c2cnc(-n3cc(S(C)(=O)=O)c4ccc(C(=O)N5CCOCC5)cc43)nc2)c1 [Example 325, (1-(5-(4-Ethylpyridin-2-yl)pyrimidin-2-yl)-3-(methylsulfonyl)-1H-indol-6-yl)(morpholino)methanone] |  |
|  | 97% | COc1ccc(F)c(-c2cnc(-n3cc([S+](C)[O-])c4ccc(C(=O)N(C)CC(N)=O)cc43)nc2)c1 (stereo not shown) [Example 279, N-(2-Amino-2-oxoethyl)-1-(5-(2-fluoro-5-methoxyphenyl)pyrimidin-2-yl)-N-methyl-3-(methylsulfinyl)-1H-indole-6-carboxamide] |  |
|  | 93% | Cc1ccc(F)c(-c2cnc(-n3cc([S+](C)[O-])c4ccc(C(=O)N5C[C@@H]6C[C@H]5CN6)cc43)nc2)c1 (stereo partly drawn) [Example 249, (1S,4S)-2,5-Diazabicyclo[2.2.1]heptan-2-yl(1-(5-(2-fluoro-5-methylphenyl)pyrimidin-2-yl)-3-(methylsulfinyl)-1H-indol-6-yl)methanone] |  |
|  | 96% | CC(C)c1ccnc(-c2cnc(-n3cc([S+](C)[O-])c4ccc(C(=O)N5CCOCC5)cc43)nc2)c1 (stereo not shown) [Example 256, (1-(5-(4-Isopropylpyridin-2-yl)pyrimidin-2-yl)-3-(methylsulfinyl)-1H-indol-6-yl)(morpholino)methanone] |  |
|  | 91% | CN(C)C(=O)c1ccc2c([S+](C)[O-])cn(-c3ncc(-c4cc(N)ccn4)cn3)c2c1 (stereo not shown) [Example 273, 1-(5-(4-Aminopyridin-2-yl)pyrimidin-2-yl)-N,N-dimethyl-3-(methylsulfinyl)-1H-indole-6-carboxamide] |  |

| inhibition at 10 µM | inhibition at 1 µM | SMILES | other results |
| --- | --- | --- | --- |
|  | 95% | COc1ccc(F)c(-c2cnc(-n3cc([S+](C)[O-])c4ccc(C(=O)N(C)C)cc43)nc2)c1 (stereo not shown) [Example 268, 1-(5-(2-Fluoro-5-methoxyphenyl)pyrimidin-2-yl)-N,N-dimethyl-3-(methylsulfinyl)-1H-indole-6-carboxamide] |  |
|  | 93% | CS(=N)(=O)c1cn(-c2ncc(-c3ccccc3F)cn2)c2cc(C(=O)N3CCOCC3)ccc12 (stereo not shown) [Example 287, (1-(5-(2-Fluorophenyl)pyrimidin-2-yl)-3-(S-methylsulfonimidoyl)-1H-indol-6-yl)(morpholino)methanone] |  |
|  |  | Cc1ccnc(-c2cnc(-n3cc([S+](C)[O-])c4ccc(C(=O)N5CCOCC5)cc43)nc2)c1 (single isomer, unassigned) [Example 352, (1-(5-(4-Methylpyridin-2-yl)pyrimidin-2-yl)-3-(methylsulfinyl)-1H-indol-6-yl)(morpholino)methanone] | Inhibition in % (inhibition of PDE4B): 95% |
|  | 96% | CCc1ccnc(-c2cnc(-n3cc([S+](C)[O-])c4ccc(C(=O)N5C[C@@H]6C[C@H]5CN6)cc43)nc2)c1 (stereo partly drawn) [Example 246, (1S,4S)-2,5-Diazabicyclo[2.2.1]heptan-2-yl(1-(5-(4-ethylpyridin-2-yl)pyrimidin-2-yl)-3-(methylsulfinyl)-1H-indol-6-yl)methanone] |  |
| 87% |  | Cc1ccnc(-c2cnc(-n3cc([S+](C)[O-])c4ccc(C(=O)N(C)CCO)cc43)nc2)c1 (stereo not shown) [Example 317, N-(2-Hydroxyethyl)-N-methyl-1-(5-(4-methylpyridin-2-yl)pyrimidin-2-yl)-3-(methylsulfinyl)-1H-indole-6-carboxamide] |  |
|  | 106% | CCc1ccc(F)c(-c2cnc(-n3cc([S+](C)[O-])c4ccc(C(=O)N5CCOCC5)cc43)nc2)c1 (stereo not shown) [Example 276, (1-(5-(5-Ethyl-2-fluorophenyl)pyrimidin-2-yl)-3-(methylsulfinyl)-1H-indol-6-yl)(morpholino)methanone] |  |
|  | 89% | CSc1cn(-c2ncc(-c3ccccc3F)cn2)c2cc(C(=O)N3CCOCC3)ccc12 [Example 1d, (1-(5-(2-Fluorophenyl)pyrimidin-2-yl)-3-(methylthio)-1H-indol-6-yl)(morpholino)methanone] |  |
| 85% |  | CNC(=O)CN(C)C(=O)c1ccc2c(S(C)(=O)=O)cn(-c3ncc(-c4cc(C)ccc4F)cn3)c2c1 [Example 305, 1-(5-(2-Fluoro-5-methylphenyl)pyrimidin-2-yl)-N-methyl-N-(2-(methylamino)-2-oxoethyl)-3-(methylsulfonyl)-1H-indole-6-carboxamide] |  |
| 103% |  | C[S+]([O-])c1cn(-c2ncc(-c3ccccc3F)cn2)c2cc(C(=O)N3CC[C@@H](CO)C3)ccc12 (stereo partly drawn) [Example 302, (1-(5-(2-Fluorophenyl)pyrimidin-2-yl)-3-(methylsulfinyl)-1H-indol-6-yl)((R)-3-(hydroxymethyl)pyrrolidin-1-yl)methanone] |  |
|  | 92% | C[S+]([O-])c1cn(-c2ncc(-c3cc(C4CC4)ccn3)cn2)c2cc(C(=O)N3CCOCC3)ccc12 (stereo not shown) [Example 258, (1-(5-(4-Cyclopropylpyridin-2-yl)pyrimidin-2-yl)-3-(methylsulfinyl)-1H-indol-6-yl)(morpholino)methanone] |  |
| 98% |  | C[S+]([O-])c1cn(-c2ncc(-c3cc(C4(O)CC4)ccc3F)cn2)c2cc(C(=O)N3CCOCC3)ccc12 (stereo not shown) [Example 294, (1-(5-(2-Fluoro-5-(1-hydroxycyclopropyl)phenyl)pyrimidin-2-yl)-3-(methylsulfinyl)-1H-indol-6-yl)(morpholino)methanone] |  |
|  | 102% | Cc1ccnc(-c2cnc(-n3cc([S+](C)[O-])c4ccc(C(=O)N(C)C)cc43)nc2)c1 (stereo not shown) [Example 270, N,N-Dimethyl-1-(5-(4-methylpyridin-2-yl)pyrimidin-2-yl)-3-(methylsulfinyl)-1H-indole-6-carboxamide] |  |
| 100% |  | CN(CC(N)=O)C(=O)c1ccc2c([S+](C)[O-])cn(-c3ncc(-c4cc(C5CC5)ccc4F)cn3)c2c1 (single isomer, unassigned) [Example 335, N-(2-Amino-2-oxoethyl)-1-(5-(5-cyclopropyl-2-fluorophenyl)pyrimidin-2-yl)-N-methyl-3-(methylsulfinyl)-1H-indole-6-carboxamide] |  |
|  |  | CC(O)c1ccnc(-c2cnc(-n3cc([S+](C)[O-])c4ccc(C(=O)N5CCOCC5)cc43)nc2)c1 (stereo not shown) [Example 300, (1-(5-(4-(1-Hydroxyethyl)pyridin-2-yl)pyrimidin-2-yl)-3-(methylsulfinyl)-1H-indol-6-yl)(morpholino)methanone] | Inhibition in % (inhibition of PDE4B): 93% |
| 98% |  | Cc1cccc(-c2cnc(-n3cc([S+](C)[O-])c4ccc(C(=O)N(C)C)cc43)nc2)n1 (stereo not shown) [Example 314, N,N-Dimethyl-1-(5-(6-methylpyridin-2-yl)pyrimidin-2-yl)-3-(methylsulfinyl)-1H-indole-6-carboxamide] |  |
